The source of these data is PMC5321445, “Inhibition of Arabidopsis chloroplast β-amylase BAM3 by maltotriose suggests a mechanism for the control of transitory leaf starch mobilisation” (PLoS ONE, 2017).

What all share (type): biochemical
One test concerns the target T1, BAM3 (Arabidopsis thaliana, UniProt O23553).
T1 sequence (O23553 50-548): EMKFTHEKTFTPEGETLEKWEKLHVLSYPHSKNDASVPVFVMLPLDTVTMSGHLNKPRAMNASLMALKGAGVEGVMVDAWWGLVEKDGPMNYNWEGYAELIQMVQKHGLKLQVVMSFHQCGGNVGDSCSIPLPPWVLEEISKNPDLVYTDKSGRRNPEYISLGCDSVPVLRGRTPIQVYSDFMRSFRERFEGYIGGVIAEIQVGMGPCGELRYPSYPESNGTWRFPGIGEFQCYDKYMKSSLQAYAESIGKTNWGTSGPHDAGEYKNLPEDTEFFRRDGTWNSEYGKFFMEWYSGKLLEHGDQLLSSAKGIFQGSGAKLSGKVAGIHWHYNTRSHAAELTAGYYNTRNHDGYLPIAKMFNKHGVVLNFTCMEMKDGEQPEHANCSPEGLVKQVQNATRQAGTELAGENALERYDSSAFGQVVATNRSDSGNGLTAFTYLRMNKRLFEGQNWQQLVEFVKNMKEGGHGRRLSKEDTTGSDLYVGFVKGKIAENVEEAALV
The test can be described thus: GC-MS maltose assay, Lineweaver-Burk and non-linear regression. The conditions noted are these: substrate maltohexaose 2.5-25 mM; mixed inhibition; 50 mM sodium acetate, 5 mM DTT, 5 mM EDTA, pH 6.0, 25°C.

Another test concerns the target T2, BAM1 (Arabidopsis thaliana, UniProt Q9LIR6).
T2 sequence (Q9LIR6 42-575): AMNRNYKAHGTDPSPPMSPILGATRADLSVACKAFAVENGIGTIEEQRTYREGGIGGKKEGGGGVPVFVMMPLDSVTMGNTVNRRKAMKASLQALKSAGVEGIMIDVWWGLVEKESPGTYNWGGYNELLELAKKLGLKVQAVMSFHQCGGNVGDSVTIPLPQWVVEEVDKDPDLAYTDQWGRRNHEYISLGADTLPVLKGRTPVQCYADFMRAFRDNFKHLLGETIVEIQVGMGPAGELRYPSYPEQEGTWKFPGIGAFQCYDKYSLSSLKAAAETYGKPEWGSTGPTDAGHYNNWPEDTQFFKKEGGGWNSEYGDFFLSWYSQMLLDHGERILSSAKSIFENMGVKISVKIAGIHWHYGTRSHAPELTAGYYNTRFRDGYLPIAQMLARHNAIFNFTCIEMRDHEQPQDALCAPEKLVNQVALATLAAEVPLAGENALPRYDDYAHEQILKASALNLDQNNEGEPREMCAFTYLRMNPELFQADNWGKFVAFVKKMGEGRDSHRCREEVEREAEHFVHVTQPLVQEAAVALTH
The test can be described thus: Betamyl colorimetric assay, p-nitrophenol release. The conditions noted are these: 2.5 mM substrate, 0.1 M maleic acid pH 6.2, 40°C; enzyme pre-treated with 20 mM DTT.

A further test concerns the target T3, barley BAM (Hordeum vulgare, UniProt P16098).
T3 construct: gene BMY1; commercial barley seed beta-amylase (Sigma A7130), native preparation, lyophilised powder
The test can be described thus: Betamyl colorimetric assay, p-nitrophenol release. As to conditions: 2.5 mM substrate, 0.1 M maleic acid pH 6.2, 40°C; enzyme pre-treated with 20 mM DTT.

T3 sequence (P16098 whole entry): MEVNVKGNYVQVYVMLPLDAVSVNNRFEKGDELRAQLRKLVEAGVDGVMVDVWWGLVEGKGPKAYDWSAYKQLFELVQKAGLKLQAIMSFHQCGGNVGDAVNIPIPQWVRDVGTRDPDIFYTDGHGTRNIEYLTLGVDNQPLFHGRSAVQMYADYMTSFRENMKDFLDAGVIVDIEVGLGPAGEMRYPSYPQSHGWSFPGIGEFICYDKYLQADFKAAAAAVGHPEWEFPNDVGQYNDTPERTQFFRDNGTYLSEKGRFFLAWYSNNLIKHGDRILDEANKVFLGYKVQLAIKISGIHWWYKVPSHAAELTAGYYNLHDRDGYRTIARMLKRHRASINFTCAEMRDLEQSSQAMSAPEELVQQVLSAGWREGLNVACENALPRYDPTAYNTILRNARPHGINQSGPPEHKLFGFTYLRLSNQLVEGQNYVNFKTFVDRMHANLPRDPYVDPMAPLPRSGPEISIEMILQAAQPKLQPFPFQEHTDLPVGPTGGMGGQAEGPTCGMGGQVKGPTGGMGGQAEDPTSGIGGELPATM

In the case of `OC[C@H]1O[C@H](O[C@H]2[C@H](O)[C@@H](O)[C@@H](O[C@H]3[C@H](O)[C@@H](O)C(O)O[C@@H]3CO)O[C@@H]2CO)[C@H](O)[C@@H](O)[C@@H]1O` (stereo partly drawn) [G3, maltotriose], the affinity on BAM3 corresponds to a Ki of 7.5 mM. Consider `O=[N+]([O-])c1ccc(O[C@H]2O[C@H](CO)[C@@H](O[C@H]3O[C@H](CO)[C@@H](O[C@H]4O[C@H](CO)[C@@H](O[C@H]5O[C@H](CO)[C@@H](O[C@H]6O[C@H](CO)[C@@H](O)[C@H](O)[C@H]6O)[C@H](O)[C@H]5O)[C@H](O)[C@H]4O)[C@H](O)[C@H]3O)[C@H](O)[C@H]2O)cc1` [PNPG5, p-nitrophenyl maltopentaoside], for which the “Betamyl colorimetric assay, p-nitrophenol release” value at BAM1 was “we assayed recombinant BAM1 and commercially-purchased barley seed β-amylase, under the same conditions”; at barley BAM, “we assayed recombinant BAM1 and commercially-purchased barley seed β-amylase, under the same conditions”.

By Ki is commonly meant the equilibrium dissociation constant of an inhibitor or competing ligand from its target. A lower Ki goes with higher affinity.
